Test results reported in PMC9325861, “Mouse precision-cut liver slices as an ex vivo model to study drug-induced cholestasis” (Archives of Toxicology, 2022).
Where “and” joins values, the source holds several entries; their conditions need not be identical. Equal entries are not always repeated.

How the values were obtained:
Ntcp (Slc10a1) = test: qRT-PCR gene expression in mouse PCLS: Ntcp; assay type: cell-based; conditions: 48 h
Method: In short, freshly prepared PCLS were transferred to 12-well plates (Greiner bio-one GmbH, Austria), one slice per well. Each well was filled with 1.3 mL pre-heated (37 ℃) and oxygenated (80%) Williams Medium E (1X, glutaMAX-1), which had been supplemented with 25 mM D-glucose monohydrate and 50 μg/ml Gentamicin (denoted as WME GG). […] The DMSO concentration used was below 0.5% in the incubation medium, equivalent to DMSO concentrations in solutions prepared by dilution of BA stock solutions with WME GG.
(§1) Three PCLS incubated under a given condition were pooled in a 1.5-mL Rnase-free test tube, snap-frozen in liquid nitrogen, and stored at – 80 °C until analysis. RNA was isolated using a FavorPrep Tissue Total RNA Mini Kit (Favorgen, Vienna, Austria). Subsequently, the RNA yield was quantified using a NanoDrop One instrument (Thermo Fisher Scientific, Massachusetts, USA). Isolated RNA was reverse-transcribed to cDNA using a cDNA synthesis kit (Reverse Transcription System, Promega, Benelux B.V.). The cDNA samples were subsequently loaded in the thermal cycler with a program set to 22 °C for 10 min, 42 °C for 15 min, and 95 °C for 5 min.
(§2) qRT-PCR was used to determine the relative mRNA expression levels for the mouse target genes: Bsep (Abcb11), Mrp2 (Abcc2), Mrp3 (Abcc3), Mrp4 (Abcc4), Ntcp (Slc10a1), Fxr (Nr1h4), Cyp7a1 (Cyp7a1), Collagen type 1a1 (Col1a1), Hsp47 (Serpinh1). Primer sequences of the genes tested are given in Supplementary Table S1. QRT-PCR was performed using, the dye, FastStart Universal SYBR Green Master Mix (Roche Diagnostics Netherlands B.V., Almere, the Netherlands) with the ViiA™ 7 Real-Time PCR System (Applied Biosystems, Bleiswijk, the Netherlands). The first cycle constituted 10 min at 95 °C, followed by 40 cycles of 15 s at 95 °C, 30 s at 60 °C and 30 s at 72 °C, followed by 1 cycle dissociation stage (15 s: 95 °C, 60 °C and 95 °C). A minimum of four mouse livers was used for each experiment, using three PCLS per condition. Samples were measured in duplicates. […] Results are expressed as log2(fold change).

rat PCLS = system: rat PCLS; design: method as in Starokozhko et al. [2017a]; conditions: in the presence of BAs, ref Starokozhko et al. [2017a]; cited from earlier work
mouse PCLS = test: LC–MS/MS quantification of intracellular BAs in mouse PCLS; assay type: cell-based; conditions: 48 h
Method: In short, freshly prepared PCLS were transferred to 12-well plates (Greiner bio-one GmbH, Austria), one slice per well. […] The composition of the human-like BA mixture was based on serum concentrations in mice and humans, measured by […]. […] A Shimadzu Nexera X2 HPLC system with binary pumps was interfaced to a Thermo Scientific TSQ Quantum ultra-triple quadrupole mass spectrometer. The BA analysis was performed by liquid chromatography-tandem mass spectrometry (LC-MS/MS). Xcalibur software version 2.0.7 by Thermo Scientific was applied in the data processing. […] Phenomenex, Utrecht, the Netherlands) reversed-phase column was used to separate the BAs. The column and autosampler temperatures were set at 55 °C and 4 °C, respectively. The injection volume was 15 μL, and the flow was set at 0.3 mL/min. […] Intracellular BA concentrations in PCLS were measured by LC-MS/MS. Sample preparation for these measurements of intracellular BAs was performed as follows. […] Hereafter, three slices for each condition were pooled in a 1.5-mL test tube, snap-frozen in liquid nitrogen and stored at -80 °C until analysis. […] Samples were subsequently centrifuged for 15 min at 15 °C and 13,000 rpm. The supernatant was collected in a new tube, and the samples were concentrated using a Concentrator plus centrifuge (Eppendorf, Germany). […] The concentrations of CA, CDCA, DCA, LCA, UDCA, HDCA, […] and GCA were determined with MRM-based LC-MS as described above.

Bsep (Abcb11) = test: qRT-PCR gene expression in mouse PCLS: Bsep; assay type: cell-based; conditions: 48 h, when BAs are present
Method: In short, freshly prepared PCLS were transferred to 12-well plates (Greiner bio-one GmbH, Austria), one slice per well.
as §1, §2

[1] = with humanized BA mixture, CPZ 15 µM, CSA 1 µM, GB 25 µM
[2] = with humanized BA mixture, CPZ 30 µM, CSA 6 µM, GB 65 µM
[3] = without BA mixture, CPZ 15 µM, CSA 1 µM, GB 25 µM
[4] = without BA mixture, CPZ 30 µM, CSA 6 µM, GB 65 µM

## COc1ccc(Cl)cc1C(=O)NCCc1ccc(S(=O)(=O)NC(=O)NC2CCCCC2)cc1 [GB, Glibenclamide]
Ntcp (Slc10a1); BAs present, highest concentration of CPZ, lowest concentration of GB
  Ntcp gene expression: increase the expression of Ntcp significantly
Ntcp (Slc10a1); in the absence of BAs
  Ntcp gene expression: decrease the Ntcp expression
Rat PCLS
  Concentration reaching severe toxicity: 180 µM
Mouse PCLS; in the absence of the BA mixture
  Effect on total intracellular BA concentration: decrease in intracellular concentrations of BAs
Mouse PCLS; [1]
  Intracellular CA concentration: 103.6±10.3 pmol/mg protein
  Intracellular CDCA concentration: 14.7±1.6 pmol/mg protein
  Intracellular DCA concentration: 50.7±7.4 pmol/mg protein
  Intracellular GCA concentration: 13.4±2.4 pmol/mg protein
  Intracellular HDCA concentration: 9.4±2.7 pmol/mg protein
  Intracellular LCA concentration: 0.8±0.5 pmol/mg protein
  Intracellular TCA concentration: 103.8±8.6 pmol/mg protein
  Intracellular TCDCA concentration: 7.7±0.5 pmol/mg protein
  Intracellular TDCA concentration: 7.6±0.8 pmol/mg protein
  Intracellular THDCA concentration: 8.3±1.4 pmol/mg protein
  Intracellular UDCA concentration: 19.1±1.7 pmol/mg protein
  Total intracellular concentration of 11 BAs: 339.2±20.7 pmol/mg protein
Mouse PCLS; [2]
  Intracellular CA concentration: 132.3±11.3 pmol/mg protein
  Intracellular CDCA concentration: 14.8±1.3 pmol/mg protein
  Intracellular DCA concentration: 121.3±8.6 pmol/mg protein
  Intracellular GCA concentration: 22.4 pmol/mg protein and 22.4±6.1 pmol/mg protein
  Intracellular HDCA concentration: 25.7±1.5 pmol/mg protein
  Intracellular LCA concentration: 0.9±0.3 pmol/mg protein
  Intracellular TCA concentration: 135.2±19.9 pmol/mg protein
  Intracellular TCDCA concentration: 8.6±1.2 pmol/mg protein
  Intracellular TDCA concentration: 14.6±0.9 pmol/mg protein
  Intracellular THDCA concentration: 11.4±2.6 pmol/mg protein
  Intracellular UDCA concentration: 24.5±3.9 pmol/mg protein
Mouse PCLS; with humanized BA mixture, vs control
  Effect on total intracellular BA concentration: reduced or did not affect
Mouse PCLS; [3]
  Intracellular CA concentration: 0.5±0.0 pmol/mg protein
  Intracellular CDCA concentration: 0.2±0.1 pmol/mg protein
  Intracellular DCA concentration: 0.6±0.5 pmol/mg protein
  Intracellular GCA concentration: 0.0±0.0 pmol/mg protein
  Intracellular HDCA concentration: 0.0±0.0 pmol/mg protein
  Intracellular LCA concentration: 0.1±0.1 pmol/mg protein
  Intracellular TCA concentration: 0.7±0.2 pmol/mg protein
  Intracellular TCDCA concentration: 2.3±0.5 pmol/mg protein
  Intracellular TDCA concentration: 0.0±0.0 pmol/mg protein
  Intracellular THDCA concentration: 1.8±0.3 pmol/mg protein
  Intracellular UDCA concentration: 0.0±0.0 pmol/mg protein
  Total intracellular concentration of 11 BAs: 6.3±0.0 pmol/mg protein
Mouse PCLS; [4]
  Intracellular CA concentration: 0.5±0.2 pmol/mg protein
  Intracellular CDCA concentration: 0.4±0.3 pmol/mg protein
  Intracellular DCA concentration: 0.1±0.1 pmol/mg protein
  Intracellular GCA concentration: 0.0±0.0 pmol/mg protein
  Intracellular HDCA concentration: 0.0±0.0 pmol/mg protein
  Intracellular LCA concentration: 0.2±0.1 pmol/mg protein
  Intracellular TCA concentration: 0.3±0.1 pmol/mg protein
  Intracellular TCDCA concentration: 2.0±0.4 pmol/mg protein
  Intracellular TDCA concentration: 0.0±0.0 pmol/mg protein
  Intracellular THDCA concentration: 0.5±0.1 pmol/mg protein
  Intracellular UDCA concentration: 0.0±0.0 pmol/mg protein
  Total intracellular concentration of 11 BAs: 4.2±0.0 pmol/mg protein
Bsep (Abcb11); 25 µM GB
  Bsep gene expression: increases
Bsep (Abcb11); 65 μM GB
  Bsep gene expression: decreases Bsep expression significantly
